Values of other authors, collected in US8986714B2, “Formulations, methods and procedures for reducing or preventing the development, or the risk of development, of neuropathology as a result of trauma” (Sapna Life Sciences Corporation, priority 2013, dated 2015).

Columns and labels:
[1] = tested on: rat model of neuropathic pain
[2] = tested on: cat spinal dorsal horn neurons; settings: noxious cutaneous stimulation and substance P
[3] = tested on: migraine attacks; settings: human, in vivo
[4] = tested on: chemotherapy-induced nausea and vomiting; settings: in conjunction with another antiemetic drug
[5] = tested on: immature mouse brain ischemia; settings: treatment of acute seizures; measured four weeks later
[6] = tested on: chronic post-surgical pain; settings: perioperative administration; at two months or more after various types of surgery
[7] = tested on: spinal cord ischemia; settings: rabbits
[8] = tested on: postherpetic neuralgia; settings: combined with valacyclovir; six months later
[9] = tested on: spinal cord compression; settings: in vivo
[10] = tested on: chronic spinal cord injury; settings: chronic spinal cord injury patients, first two weeks
[11] = tested on: amyotrophic lateral sclerosis
[12] = tested on: chronic spinal cord injury; settings: stable chronic spinal cord injury patients
[13] = tested on: peripheral nerve crush injury; settings: facial nerve and sciatic nerve injury models
[14] = tested on: partial sciatic nerve ligation; settings: compared to controls
[15] = tested on: traumatic brain injury; settings: approximately 80 patients treated within eight hours after traumatic brain injury

Which results are given for `COc1ccccc1CN[C@H]1C2CCN(CC2)[C@H]1C(c1ccccc1)c1ccccc1` [CP-96,345]?
recovery from peripheral nerve injury ([1]; animal model): promotes the recovery from peripheral nerve injury; responses of spinal dorsal horn neurons [2]: blocks responses of cat spinal dorsal horn neurons to noxious cutaneous stimulation and to substance P

For `COc1ccccc1[C@H](C)C(=O)N1C[C@@H]2[C@H](C1)C(c1ccccc1)(c1ccccc1)CC[C@@]2(O)c1ccccc1OC` [RPR100893], which “treatment of migraine attacks” value [3] is on record?
The value was “not effective”.

With `C[C@@H](O[C@H]1OCCN(Cc2n[nH]c(=O)[nH]2)[C@H]1c1ccc(F)cc1)c1cc(C(F)(F)F)cc(C(F)(F)F)c1` [aprepitant] as the compound, how does the “acute effects on chemotherapy-induced nausea and vomiting” value [4] read?
Its value is “proved to be effective when administered in conjunction with another antiemetic drug”.

Which brain atrophy [5] does the source give for `NCC1(CC(=O)O)CCCCC1` [gabapentin] here?
Its brain atrophy is “beneficial effects on brain atrophy”.

And the “incidence of chronic post-surgical pain” value [6]?
The value was “reducing the incidence of chronic post-surgical pain”.

And the “outcomes of neuropathology, spinal cord ischemia” value [7]?
Its value is “preventive effects”.

What about the “rate of postherpetic neuralgia” value [8] of the same compound?
Its value is “reduced”.

What about the “outcomes of neuropathology, spinal cord compression” value [9] of the same compound?
Its value is “preventive effects”.

With `O=C([O-])[O-].[Li+].[Li+]` [lithium carbonate] as the compound, how does the tolerability [10] read?
The tolerability was “well tolerated over the first two weeks”.

And the mortality ([11]; 22 patients, over 15 months)?
Its mortality is “prevented death of 22 patients”.

What about the motor deterioration ([11]; 22 patients, over 15 months) of the same compound?
The motor deterioration was “only minimal motor deterioration”.

And the plasma levels ([11]; daily oral doses)?
The plasma levels was 400 to 800 µM.

What about the “effect on neurological symptoms” value [12] of the same compound?
Its value is “without effect on neurological symptoms”.

Which results are given for `[Cl-].[Li+]` [lithium chloride]?
expression of myelin genes [13]: stimulate the expression of myelin genes; functional recovery [13]: accelerate functional recovery; myelin structure [13]: restore myelin structure; nociceptive scores in response to tactile and thermal stimuli [14]: reduced the nociceptive scores

Which neurological outcomes [15] does the source give for `CC(=O)[C@H]1CC[C@H]2[C@@H]3CCC4=CC(=O)CC[C@]4(C)[C@H]3CC[C@]12C` [progesterone] here?
The neurological outcomes was “improved neurological outcomes”.

What about the “development of symptoms of peripheral nerve injury” value ([1]; early administration, intraperitoneally) of the same compound?
The value was “prevents the development of symptoms of peripheral nerve injury”.

What about the “tactile hypersensitivity, late treatment” value ([1]; given for 11 days, starting on day 20, versus control group) of the same compound?
The value was “no difference between this experimental group and the control group”.

What about the “tactile hypersensitivity by 30 days” value ([1]; started one hour after model induction, daily for the subsequent 10 days) of the same compound?
The value was “no tactile hypersensitivity”.

What about the “persistence of effect after treatment ended on day 10” value ([1]; study period ended at day 85) of the same compound?
The value was “persisted to the end of the study period”.
